Laboratory results reported in US20260041649A1, “ANTI-INFLAMMATORY AGENT” (WATANABE OYSTER LABORATORY, CO., LTD., priority 2023, published 2026).

Tests used:
[1] = system: mouse macrophage RAW264.7 cells; assay: Cell proliferation of RAW264.7 cells (cell count); format: cell-based; settings: DHMBA 1, 10, 100 or 1000 μM, 1 to 4 days
Protocol: FIG. 2 is an explanatory diagram describing that the marine factor 3,5-dihydroxy-4-methoxybenzyl alcohol (DHMBA) suppresses the proliferation of mouse macrophage RAW264.7 cells. RAW264.7 cells (1×10^5 cells/ml per well in a 24-well plate) were cultured in a DMEM culture medium containing 10% FBS (fetal bovine serum), 1% P/S (penicillin/streptomycin), and 1% fungizone in a control group (1% ethanol; 0 μM DHMBA as final concentration) and in a DHMBA-treated group (0.1, 1, 10, 100, or 1000 μM) for 1 day (panel A), 2 days (B), 3 days (C), or 4 days (D). After the culture, the number of cells attached to the dish was counted. Data are presented as the mean±SD (standard deviation) from a total of 8 wells in 2 plates using different cell preparations. *: Significant difference (p<0.001) between the control group (gray bars) and the DHMBA-treated group. Statistical analysis was performed using 1-way ANOVA with Tukey-Kramer post-test.
After the culture, to detach the cells from each well, a Ca^2+/Mg^2+ free PBS solution with 0.05% trypsin/EDTA was added to the culture dish (0.1 ml per well) and incubated at 37° C. for 2 min. […]
The number of viable cells was counted under a microscope (Olympus MTV-3) using a hemocytometer (Sigma-Aldrich) and a cell counter (H-102P, Line Seiki Co., Ltd., Tokyo, Japan). […]

[2] = system: mouse macrophage RAW264.7 cells; assay: Western blotting of cytokine signalling proteins with or without LPS; format: cell-based; settings: DHMBA 10 μM, 5 hours
Protocol: Cells (1×10^6 cells/10 ml of medium) were cultured in a DMEM culture medium for 3 days until they reached subconfluence. After that, cells were cultured for another 5 hours in the control group (1% ethanol; DHMBA 0 M) and in the DHMBA-treated group (10 μM) with or without of LPS (100 ng/ml). After the culture, cell lysates were obtained for Western blot assay using specific antibodies against COX-1, COX-2, MAPK, phospho-MAPK, NF-κB p65, STAT3, and β-actin, as shown in FIG. 3.
Band intensities are presented as fold increase over the controls, under the following conditions: no LPS (FIG. 8B), LPS (100 ng/ml) alone (FIG. 8C), and LPS (100 ng/ml) plus DHMBA (10 μM) (FIG. 8D). Data are presented as the mean±SD of values obtained from 4 dishes using different cell preparations. *: Significant difference (p<0.01) versus the control without LPS (FIG. 8C). *: Significant difference (p<0.01) versus the control with LPS but without DHMBA (FIG. 8D). Statistical analysis was performed using 1-way ANOVA with Tukey-Kramer post-test.
To measure the expression levels of Cox-1, Cox-2, NF-κB p65, and STAT3, which are involved in cytokine signaling, RAW264.7 cells (1×10^6 cells/10 ml of 100 mm dish) were cultured in a DMEM culture medium containing 10% FS, 1% P/S, and 1% fungizone for 3 days until they reached subconfluence, and then cultured for another 5 hours in the control group (1% ethanol; DHMBA 0 μM as final concentration) and in the DHMBA-treated group (10 μM) with or without LPS (100 ng/ml in the medium). After the culture, the cells attached to the dish were scraped off with a cell lysis buffer and collected for measurement as described in the “Western blotting” section.
RAW264.7 cells (1×10^6 cells/10 ml of 100 mm dish) were cultured for 3 days in 10% FBS, 1% P/S (1% ethanol), or in the DHMBA-treated group (10 μM). After the culture, the dishes were washed with cold PBS (10 ml) to remove floating and dead cells. The cell lysis buffer (Cell Signaling Technology, Inc., Danvers, MA, USA) supplemented with protease/protein phosphatase inhibitor (Roche Diagnostics, Indianapolis, IN, USA) was added to the cells to collect cell lysates of the adherent cells as described in the previous study. The cell lysates were centrifuged at 17,000×g, 4° C. for 10 min. Protein concentrations in the supernatants were measured using Bio-Rad Protein Assay Dye (Bio-Rad Laboratories, Inc., Hercules, CA, USA) with bovine serum albumin as a standard. The cell lysates were stored at −80° C. until use. The supernatant proteins (40 μg/lane) were separated by SDS-polyacrylamide gel electrophoresis (12% SDS-PAGE) and transferred to a PVDF membrane. The transferred membranes were immunoblotted with specific antibodies against various proteins, including Ras (cat. no. 3339, rabbit), Akt (cat. no. 9272, rabbit), mitogen-activated protein kinase (MAPK; cat. no. 4695, rabbit), phosphorylated MAPK (cat. no. 4370, rabbit), mechanistic target of rapamycin (mTOR; cat. no. 4517, mouse), Rb (cat. no. 9309, mouse), p21 (cat. no. 2947, rabbit), STAT3 (cat. no. 12640, rabbit), COX-1 (cat. no. 48415), COX-2 (cat. no. 4842), and β-actin (cat. no. 3700, mouse), all of which were purchased from Cell Signaling Technology, Inc. (Danvers, MA, USA). Specific antibodies for p53 (cat. no. sc-126, mouse) and NF-κB p65 (cat. no. sc-109, rabbit) were purchased from Santa Cruz Biotechnology Inc. (Santa Cruz, CA, USA). Additionally, rabbit anti-regucalcin antibody (cat. no. HPA029103, rabbit) was obtained from Sigma-Aldrich. Target proteins were incubated overnight at 4° C. with one of the above primary antibodies (1:1,000). After incubation, the membranes were further incubated with horseradish peroxidase-conjugated secondary antibodies (Santa Cruz Biotechnology Inc., cat. no. sc-2005 (mouse) or sc-2305 (rabbit); dilution 1:2000) for 60 min at room temperature, and protein bands were detected using chemiluminescence substrates (cat. no. 34577, Thermo Fisher Scientific Inc., Rockford, IL, USA) on X-ray films. […]

## COc1c(O)cc(CO)cc1O [DHMBA, 3,5-dihydroxy-4-methoxybenzyl alcohol]
[1]
  proliferation of RAW264.7 cells (number of cells attached to the dish): inhibited
[2]; LPS 100 ng/ml
  LPS-increased level of MAPK: suppressed
  LPS-increased level of NF-κB p65: suppressed
  LPS-increased level of STAT3: suppressed
  LPS-increased level of phospho-MAPK: suppressed
[2]; without LPS
  level of COX-1: not altered
  level of COX-2: not altered
  level of MAPK: not altered
  level of NF-κB p65: not altered
  level of STAT3: not altered
  level of phospho-MAPK: not altered
